# Where two headings read alike, the source gives them in different places. Where a SMILES comes first, the peptide text is derived from it. Where no end group is shown, it is not given here. [ ]: non-standard residue; d: D form.
# Tests used:
# [1] = system: Factor V deficient human plasma; experiment: DDPTGA (reagent B) in FV depleted plasma; conditions: compounds at 50 μM and 80, 90 or 100 μM
# Procedure: (§4) The Defined Dual-Pathway Thrombin Generation Assay is performed as described below, using a commercial test kit (Technothrombin TGA, Technoclone GmbH, Vienna, Austria). […] USA) are incubated four minutes at 37° C. Preferably, Reagent C high is used. Thrombin generation is started by the addition of 40 μl of one of several types of human plasma (37° C.). […] By deviating the original fluorescence data the amount of generated thrombin is calculated from a standard curve constructed using a concentration range of thrombin.
# (§5) The in vitro thrombin generation assay based on the cleavage of Z-GGR-AMC to release the fluorophore AMC, described in the specific description, i.e. the Defined Dual-Pathway Thrombin Generation Assay was used to characterise the effect of the compounds in several depleted human plasmas. […] 10 μl peptide dilution, 40 μl TGA substrate and 40 μl plasma were used as described in the specific description.
# (§6) The plasmas used in the experiments were fresh frozen and were deficient in Factor V, Factor VII/VIIa, Factor VIII, Factor X or Factor XI (George King Bio-Medical, Inc.). Residual coagulation factor levels of deficient plasmas were specified as less than 1%.
# (§7) For each depleted plasma used in the experiments, compounds were tested at two concentrations, namely 50 μM and 80, 90 or 100 μM. A negative control was used, in which no test compound was included.
# FVIII inhibited plasma = experiment: Defined Dual-Pathway Thrombin Generation Assay (DDPTGA, reagent C high), FVIII inhibited plasma; assay type: biochemical, human; conditions: for Peak IIa FEIBA EU / Peak IIa FVIIa EU / Peak Time FEIBA EU / Peak Time FVIIa EU: FVIII inhibited plasma; for Activity in the Defined Dual-Pathway Thrombin Generation Assay: summary, FVIII inhibited or deficient plasma
# [2] = system: Factor XI deficient human plasma; experiment: DDPTGA (reagent B) in FXI depleted plasma; conditions: compounds at 50 μM and 80, 90 or 100 μM
# Procedure: as §4, §5, §6, §7
# FVIII deficient plasma = experiment: Defined Dual-Pathway Thrombin Generation Assay (DDPTGA, reagent C high), FVIII deficient plasma; assay type: biochemical, human; conditions: for Peak IIa FVIII EU / Peak Time FVIII EU: FVIII deficient plasma
# physchem = conditions: for solubility kinetic: pH 7.4
# [3] = system: Factor X deficient human plasma; experiment: DDPTGA (reagent B) in FX depleted plasma; conditions: compounds at 50 μM and 80, 90 or 100 μM
# Procedure: as §4, §5, §6, §7
# C57BI/6 mice = experiment: Acute toxicology in mice; assay type: in vivo, mouse; conditions: i.v.; 60 minutes following administration
# Procedure: (§1) Toxicology studies involved monitoring of attitude changes due to toxic effects immediately after application and twice daily; monitoring of body weight; histopathology of brain, heart, kidney, liver, lung. Experiments were performed in C57131/6 mice.
# (§2) C57BI/6 mice weighing 18-20 g were administered with compounds in a suitable vehicle i.v. in the tail vein or i.p. or s.c at 10 ml/kg. Quantities of the compounds administered were in the range of 0.075 to 125 mg/kg (i.v.), 15-125 mg/kg (i.p.) and 125 mg/kg (s.c.). There were four mice per group. Attitude changes due to toxic effects were monitored immediately after administration of the compound and for 60 minutes thereafter. Body weight was monitored for five days after administration. At day 5 after administration, mice were culled and autopsy performed. Brain, heart, kidney, liver, lung and spleen were biopsied.
# (§3) In the above table, the maximum dose tested giving rise to no detected toxicity, some toxicity or severe toxicity over the period of 60 minutes following administration is reported. “No detected toxicity” indicates no acute toxic observations.
# Acute toxicology in mice = assay type: in vivo, mouse; conditions: C57BL/6, mouse, in vivo, 60 minutes following administration, read-out: Max dose within toxicity category: No detected toxicity
# Procedure: as §1, §2, §3
# [4] = system: human FVIII inhibited plasma; experiment: Defined Intrinsic Thrombin Generation Assay (DITGA, triggered by FXIa and phospholipids); assay type: biochemical; conditions: for Activity in the Defined Intrinsic Thrombin Generation Assay: summary
# [5] = system: Factor VIII deficient human plasma; experiment: DDPTGA (reagent B) in FVIII depleted plasma; assay type: biochemical; conditions: compounds at 50 μM and 80, 90 or 100 μM; note: key: '+' means stimulates; '−' means does not stimulate
# Source text: Preferably, Reagent C high is used.
# [6] = system: Factor VII/VIIa deficient human plasma; experiment: DDPTGA (reagent B) in FVII depleted plasma; conditions: compounds at 50 μM and 80, 90 or 100 μM
# Procedure: as §4, §5, §6, §7
Molecule,Stimulation of thrombin generation [1],Stimulation of thrombin generation [2],solubility kinetic (physchem),"solubility (physchem; pH 7.4, Aqueous solubility)",Stimulation of thrombin generation [3],NOAEL at 1 h (Acute toxicology in mice; ip),NOAEL at 1 h (Acute toxicology in mice; iv),Thrombin peak time given as FEIBA equivalent activity ([4]; peptide 6.25 μM),Thrombin peak time given as FEIBA equivalent activity ([4]; peptide 12.5 μM),Thrombin peak time given as FEIBA equivalent activity ([4]; peptide 25 μM),Thrombin peak time given as FEIBA equivalent activity ([4]; peptide 50 μM),Thrombin peak time given as FEIBA equivalent activity ([4]; peptide 100 μM),Activity in the Defined Intrinsic Thrombin Generation Assay [4],Stimulation of thrombin generation [5],Stimulation of thrombin generation [6],Peak IIa FEIBA EU (FVIII inhibited plasma; peptide 50 μM),Peak IIa FVIIa EU (FVIII inhibited plasma; peptide 50 μM),Peak Time FEIBA EU (FVIII inhibited plasma; peptide 50 μM),Peak Time FVIIa EU (FVIII inhibited plasma; peptide 50 μM),Peak IIa FVIII EU (FVIII deficient plasma; peptide 50 μM),also measured
"CC[C@@H](C)[C@@H](NC(=O)[C@@H](CS)NC(C)=O)C(=O)N[C@H](CCSC)C(=O)N[C@H](Cc1ccccc1)C(=O)N[C@H](Cc1c[nH]c2ccccc12)C(=O)N[C@H](Cc1ccc(O)cc1)C(=O)N[C@H](CC(=O)O)C(=O)N[C@H](CCC(=O)O)C(=O)N[C@H](Cc1ccc(O)cc1)C(=O)N[C@H](CCC(=O)O)C(N)=O [Peptide B03, Ac-cimfwydeye-NH2] (Ac-[dC][dI][dM][dF][dW][dY][dD][dE][dY][dE]-NH2)",−,+,114 µM,114 µM,+,15 mg/kg,1.5 mg/kg,454 mU/ml,602 mU/ml,738 mU/ml,1030 mU/ml,1394 mU/ml,possess activity,+,+,,,,,,"Peak IIa FEIBA EU (FVIII inhibited plasma; peptide 40 μM): 7.2 mU/ml; Peak IIa FVIIa EU (FVIII inhibited plasma; peptide 40 μM): 0.2 nM; Peak Time FEIBA EU (FVIII inhibited plasma; peptide 40 μM): BLS (BLS = below lowest standard.); Peak Time FVIIa EU (FVIII inhibited plasma; peptide 40 μM): BLS (BLS = below lowest standard.); Peak IIa FEIBA EU (FVIII inhibited plasma; peptide 100 μM): 12.3 mU/ml; Peak IIa FVIIa EU (FVIII inhibited plasma; peptide 100 μM): 0.6 nM; Peak Time FEIBA EU (FVIII inhibited plasma; peptide 100 μM): BLS (BLS = below lowest standard.); Peak Time FVIIa EU (FVIII inhibited plasma; peptide 100 μM): BLS (BLS = below lowest standard.); Activity in the Defined Dual-Pathway Thrombin Generation Assay (FVIII inhibited plasma): possess activity; Effect on both peak time and peak IIa of thrombin generation (FVIII deficient plasma; DDPTGA, comment on Table 10): positively affected; Peak IIa FVIII EU (FVIII deficient plasma; peptide 40 μM): 4.8 mU/ml; Peak Time FVIII EU (FVIII deficient plasma; peptide 40 μM): 8.7 mU/ml; Peak IIa FVIII EU (FVIII deficient plasma; peptide 100 μM): 5.3 mU/ml; Peak Time FVIII EU (FVIII deficient plasma; peptide 100 μM): 7.5 mU/ml; Max dose within toxicity category: Severe toxicity (one of the animals died within one hour) (C57BI/6 mice): 15 mg/kg"
Ac-PMKFDVWDLYFEIVW-NH2 [Peptide A02],−,+,35 µM,35 µM,+,25 mg/kg,25 mg/kg,577 mU/ml,674 mU/ml,780 mU/ml,1018 mU/ml,1305 mU/ml,possess activity,+,+,BLS (BLS = below lowest standard.),BLS (BLS = below lowest standard.),10.2 mU/ml,0.4 nM,BLS (BLS = below lowest standard.),"Activity in the Defined Dual-Pathway Thrombin Generation Assay (FVIII inhibited plasma): possess activity; Peak Time FVIII EU (FVIII deficient plasma; peptide 50 μM): BLS (BLS = below lowest standard.); solubility (physchem; pH 7.4, Solubility in PBS pH 7.4): ≥ 25 µM"
Ac-RMKFDVWDLYFEIVW-NH2 [Peptide A01],−,+,9 µM,9 µM,−,20 mg/kg,20 mg/kg,97 mU/ml,138 mU/ml,160 mU/ml,227 mU/ml,338 mU/ml,possess activity,+,+,BLS (BLS = below lowest standard.),BLS (BLS = below lowest standard.),BLS (BLS = below lowest standard.),BLS (BLS = below lowest standard.),BLS (BLS = below lowest standard.),Peak IIa FEIBA EU (FVIII inhibited plasma; peptide 90 μM): BLS (BLS = below lowest standard.); Peak IIa FVIIa EU (FVIII inhibited plasma; peptide 90 μM): BLS (BLS = below lowest standard.); Peak Time FEIBA EU (FVIII inhibited plasma; peptide 90 μM): BLS (BLS = below lowest standard.); Peak Time FVIIa EU (FVIII inhibited plasma; peptide 90 μM): BLS (BLS = below lowest standard.); Peak Time FVIII EU (FVIII deficient plasma; peptide 50 μM): BLS (BLS = below lowest standard.); Peak IIa FVIII EU (FVIII deficient plasma; peptide 90 μM): BLS (BLS = below lowest standard.); Peak Time FVIII EU (FVIII deficient plasma; peptide 90 μM): BLS (BLS = below lowest standard.)
Ac-WDLYFEIVW-NH2 [Peptide A05],−,+,6 µM,6 µM,+,15 mg/kg,,390 mU/ml,487 mU/ml,562 mU/ml,631 mU/ml,816 mU/ml,possess activity,+,+,BLS (BLS = below lowest standard.),BLS (BLS = below lowest standard.),BLS (BLS = below lowest standard.),BLS (BLS = below lowest standard.),BLS (BLS = below lowest standard.),"Peak IIa FEIBA EU (FVIII inhibited plasma; peptide 100 μM): BLS (BLS = below lowest standard.); Peak IIa FVIIa EU (FVIII inhibited plasma; peptide 100 μM): BLS (BLS = below lowest standard.); Peak Time FEIBA EU (FVIII inhibited plasma; peptide 100 μM): BLS (BLS = below lowest standard.); Peak Time FVIIa EU (FVIII inhibited plasma; peptide 100 μM): BLS (BLS = below lowest standard.); Peak Time FVIII EU (FVIII deficient plasma; peptide 50 μM): BLS (BLS = below lowest standard.); Peak IIa FVIII EU (FVIII deficient plasma; peptide 100 μM): BLS (BLS = below lowest standard.); Peak Time FVIII EU (FVIII deficient plasma; peptide 100 μM): BLS (BLS = below lowest standard.); Max dose within toxicity category: Severe toxicity (one of the animals died within one hour) (C57BI/6 mice): 15 mg/kg; Max dose within toxicity category: Some toxicity (ataxy or catalepsy, no deaths) (C57BI/6 mice): 1.5 mg/kg"
Ac-WDLYFEIVWE [Peptide A06],+,+,,164 µM,+,25 mg/kg,1 mg/kg,571 mU/ml,750 mU/ml,843 mU/ml,919 mU/ml,879 mU/ml,possess activity,+,+,BLS (BLS = below lowest standard.),BLS (BLS = below lowest standard.),BLS (BLS = below lowest standard.),BLS (BLS = below lowest standard.),BLS (BLS = below lowest standard.),"Peak IIa FEIBA EU (FVIII inhibited plasma; peptide 100 μM): BLS (BLS = below lowest standard.); Peak IIa FVIIa EU (FVIII inhibited plasma; peptide 100 μM): BLS (BLS = below lowest standard.); Peak Time FEIBA EU (FVIII inhibited plasma; peptide 100 μM): BLS (BLS = below lowest standard.); Peak Time FVIIa EU (FVIII inhibited plasma; peptide 100 μM): 0.4 nM; Activity in the Defined Dual-Pathway Thrombin Generation Assay (FVIII inhibited plasma): possess activity; Peak Time FVIII EU (FVIII deficient plasma; peptide 50 μM): BLS (BLS = below lowest standard.); Peak IIa FVIII EU (FVIII deficient plasma; peptide 100 μM): BLS (BLS = below lowest standard.); Peak Time FVIII EU (FVIII deficient plasma; peptide 100 μM): BLS (BLS = below lowest standard.); solubility (physchem; pH 7.4, Solubility in PBS): 164 µM; Max dose within toxicity category: Severe toxicity (one of the animals died within one hour) (C57BI/6 mice): 25 mg/kg; Max dose within toxicity category: Some toxicity (ataxy or catalepsy, no deaths) (C57BI/6 mice): 5 mg/kg"
